Data taken from patent US20220146519A1, “INTEGRIN ALPHA V BETA 3 TARGETING PROBE FOR DIAGNOSING RETINOCHOROIDAL NEOVASCULAR DISEASES AND PREPARATION METHOD THEREFOR” (SEOUL NATIONAL UNIVERSITY HOSPITAL, priority 2019, published 2022).
“Also recorded” adds a separate entry of the source.

Tests used:
[1] = system: integrin αvβ3; test: Fluorescence staining of vessels in retinal and choroidal flatmounts using FITC-labeled RGD peptide; design: species or system mouse; conditions: for staining of choroidal neovascularization lesions (laser-treated areas): ex vivo choroidal flatmount, 7 days after laser-induced choroidal neovascularization, C57BL/6 mice
Procedure: After intravenous anesthesia using a 1:1 mixture of 100 mg/mL ketamine and 20 mg/mL xylazine and pupillary dilatation using 5.0% phenylephrine and 0.8% tropicamide, C57BL/6 mice were placed on the Mayo stand (Coherent PC-920 Argon Ion Laser System; Coherent Medical Laser, Santa Clara, Calif.). Choroidal neovascularization was induced using 512-nm argon laser photocoagulation, with 100 urn of spot size and 100 mW of power for 0.1 s in the right eye. Five lesions of about 2-3 disc diameters were generated from the optic disc. The formation of bubbles upon laser delivery can be considered sufficient damage to induce rupture of Bruch's membrane and choroidal neovascularization. When subretinal hemorrhage occurred after the laser treatment, the mice were excluded from the experiment.
Ten eyes were prepared as choroidal flatmounts. For the flatmounts, mice were anesthetized at days 7 or 14 and eyes were enucleated and fixed with 4% paraformaldehyde for 30 min at 4° C. The anterior segment and retina were removed from the eyecup, and four radial incisions were made. The remaining retinal pigment epithelium (RPE)-choroid-sclera complex was flatmounted and coverslipped. Flatmounts were examined with a scanning laser confocal microscope (LSM710; Carl Zeiss, Oberkochen, Germany). […]
Fluorescence staining with FITC-D-[c(RGDfK)]^2 was performed as follows: • (1) the retinal and choroidal flatmounts were washed with PBS and incubated with FITC-D-[c(RGDfK)]2 for 30 minutes; • (2) the slides were washed with PBS several times, counterstained with 4′,6-diamidino-2-phenylindole (DAPI), and mounted with ProLong Gold anti-fade reagent (Life Technologies, Carlsbad, Calif., USA); • (3) and after staining, the flatmounts were mounted with the vitreous side up on glass slides and visualized on a confocal microscope (LSM710; Carl Zeiss, Oberkochen, Germany).

[2] = system: integrin αvβ3; test: Specificity of FITC-D-[c(RGDfK)]2 staining evaluated with excess cRGD peptides; type: binding, mouse; conditions: 10 nM probe; 2-hour incubation with 200 nM (20-fold) cRGD before staining; choroidal flatmount
Procedure: Additionally, the specificity of FITC-D-[c(RGDfK)]2 staining was evaluated by using an excess of cRGD peptides. For this experiment, one mouse with identical laser-induced choroidal neovascularization in both eyes was sacrificed. One eye of the mouse was stained with the staining method described above using 10 nM of FITCD-[c(RGDfK)]2. The other eye was stained with the staining method described above plus a 2-hour incubation with excess cRGD peptides (for example, 20-fold molar concentration of the FITC-conjugated cRGD dimer, i.e., 200 nM) prior to the fluorescence staining. In this staining, the present inventors used an integrin αvβ3 antibody to investigate if the staining with the integrin αvβ3 antibody co-localized with that of the FITC-conjugated cRGD dimer.

Chain of integrin αvβ3 (P43406 31-885 limits assumed): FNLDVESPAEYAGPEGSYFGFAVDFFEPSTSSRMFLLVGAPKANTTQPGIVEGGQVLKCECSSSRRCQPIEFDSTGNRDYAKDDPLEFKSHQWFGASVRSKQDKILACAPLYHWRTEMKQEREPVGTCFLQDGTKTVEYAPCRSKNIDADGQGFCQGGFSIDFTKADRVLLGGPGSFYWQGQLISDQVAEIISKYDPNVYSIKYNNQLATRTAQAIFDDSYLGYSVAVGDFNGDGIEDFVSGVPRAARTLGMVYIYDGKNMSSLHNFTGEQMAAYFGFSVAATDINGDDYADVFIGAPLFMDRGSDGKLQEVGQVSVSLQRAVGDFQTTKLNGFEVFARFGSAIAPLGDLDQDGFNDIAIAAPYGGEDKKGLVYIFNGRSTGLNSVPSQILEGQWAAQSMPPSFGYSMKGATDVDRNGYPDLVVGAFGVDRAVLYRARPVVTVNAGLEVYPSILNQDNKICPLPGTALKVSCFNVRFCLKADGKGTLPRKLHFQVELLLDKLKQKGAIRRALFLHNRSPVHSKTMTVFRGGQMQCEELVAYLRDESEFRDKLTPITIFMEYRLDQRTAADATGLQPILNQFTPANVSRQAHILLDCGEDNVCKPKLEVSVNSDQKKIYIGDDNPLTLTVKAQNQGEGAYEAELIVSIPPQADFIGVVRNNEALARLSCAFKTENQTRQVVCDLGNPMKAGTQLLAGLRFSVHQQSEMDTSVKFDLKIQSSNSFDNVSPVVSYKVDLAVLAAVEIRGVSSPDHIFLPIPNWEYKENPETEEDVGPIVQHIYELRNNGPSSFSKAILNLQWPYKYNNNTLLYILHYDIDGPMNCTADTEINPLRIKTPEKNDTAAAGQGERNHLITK
Chain of integrin αvβ3 (P43406 887-1044 partner limits assumed): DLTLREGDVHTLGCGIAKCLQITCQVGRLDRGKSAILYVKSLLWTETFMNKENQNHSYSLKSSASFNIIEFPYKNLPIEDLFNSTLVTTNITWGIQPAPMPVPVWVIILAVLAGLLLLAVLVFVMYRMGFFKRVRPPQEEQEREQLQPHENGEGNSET
Chain of integrin αvβ3 (O54890 26-787, further chain): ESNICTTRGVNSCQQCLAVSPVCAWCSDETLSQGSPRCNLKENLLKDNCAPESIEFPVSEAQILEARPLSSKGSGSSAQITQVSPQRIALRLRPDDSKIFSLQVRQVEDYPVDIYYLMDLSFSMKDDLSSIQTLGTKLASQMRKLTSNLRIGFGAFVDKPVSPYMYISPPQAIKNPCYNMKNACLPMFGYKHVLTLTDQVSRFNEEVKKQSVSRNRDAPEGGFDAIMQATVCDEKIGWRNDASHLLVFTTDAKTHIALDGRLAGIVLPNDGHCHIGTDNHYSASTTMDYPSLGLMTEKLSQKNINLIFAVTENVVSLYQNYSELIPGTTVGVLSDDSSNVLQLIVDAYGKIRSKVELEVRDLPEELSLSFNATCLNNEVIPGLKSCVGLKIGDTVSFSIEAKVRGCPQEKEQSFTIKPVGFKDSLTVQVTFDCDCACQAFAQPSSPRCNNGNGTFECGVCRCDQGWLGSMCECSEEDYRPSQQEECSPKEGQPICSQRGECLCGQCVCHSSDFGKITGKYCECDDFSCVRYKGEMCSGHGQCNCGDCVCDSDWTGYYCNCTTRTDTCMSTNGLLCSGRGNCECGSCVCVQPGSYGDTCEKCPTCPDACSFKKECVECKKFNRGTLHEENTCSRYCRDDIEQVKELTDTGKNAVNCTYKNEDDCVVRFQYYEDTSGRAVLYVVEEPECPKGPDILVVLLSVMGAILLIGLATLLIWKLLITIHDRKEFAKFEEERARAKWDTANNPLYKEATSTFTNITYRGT

With “FITC-D-[c(RGDfK)]2 [FITC-labeled cyclic RGD peptide]” the “staining of choroidal neovascularization lesions (laser-treated areas)” value [1] was “intense immunofluorescence staining; also recorded: allowed the visualization of choroidal neovascularization at laser-treated areas”, the “staining of choroidal neovascularization lesions (laser-treated areas)” value ([1]; listed as FITC-labeled RGD peptide) was “laser-treated lesion stained with FITC-labeled RGD peptide corresponded to that stained with lectin” and the “staining of normal vessels in the retina” value ([1]; ex vivo untreated retina flatmount, lectin-positive normal vessels) was “barely stained”. For the same substance, the “fluorescence of probe after pre-incubation with excess cRGD” value [2] was “remarkably reduced”.
